Source: US20230121547A1, “A COMBINATION THERAPY WITH NIROGACESTAT AND A BCMA-DIRECTED THERAPY AND USES THEREOF” (SpringWorks Therapeutics Inc., priority 2020, published 2023)

Test: physchem
Details: organic solvent or mixture, thermodynamic from solid
Protocol: Weighed samples of material were treated with aliquots of specified solvents at ambient temperature. Samples were typically sonicated between additions to facilitate dissolution. Complete dissolution was observed through visual inspection. Solubility was calculated based on the total amount of solvent added to achieve complete dissolution and may be greater than the value reported due to incremental solvent addition and the inherent kinetics of dissolution. If dissolution was not observed, values are reported as “less than”. If dissolution was observed upon the first addition of solvent, values are reported as “greater than”.

solubility: < 1000 µg/mL
SMILES: Br.Br.CCC[C@H](N[C@H]1CCc2cc(F)cc(F)c2C1)C(=O)Nc1cn(C(C)(C)CNCC(C)(C)C)cn1 [nirogacestat dihydrobromide, (S)-2-(((S)-6,8-difluoro-1,2,3,4-tetrahydronaphthalen-2-yl)amino)-N-(1-(2-methyl-1-(neopentylamino)propan-2-yl)-1H-imidazol-4-yl)pentanamide]
